Measured values reported in paper PMC11882969 (Nature Communications, 2025).
Where “and” joins values, the source holds several entries; their conditions need not be identical. Equal values may be shown once.

Legend:
hCB1 [1] = biological target: T1, hCB1 (Homo sapiens, UniProt P21554); assay: DiscoverX PathHunter β-arrestin-2 recruitment; type: cell-based; conditions: individual replicates;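 also: CHO-K1 cells expressing hCB1, agonist mode, compound exposure with 1% vehicle, chemiluminescence read-out of the β-arrestin-2 recruitment signal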
hCB1 [2] = biological target: T1, hCB1; assay: Cerep HTRF cAMP inhibition assay, hCB1 CHO-K1; type: cell-based; set-up: host or cells: HEK293SL cells, transient PEI transfection
Method: (§1) The hCB1/2 CHO-K1 cells (ATCC: CCL-61) are suspended in HBSS buffer (Invitrogen) complemented with 20 mM HEPES (pH 7.4), then distributed in microplates at a density of 5.103 cells/well in the presence of either of the following: HBSS (basal control), the reference agonist (stimulated control) or the test compounds. […] Following 30 min incubation at 37 °C, the cells are lysed, and the fluorescence acceptor (D2-labeled cAMP) and fluorescence donor (anti-cAMP antibody labeled with europium cryptate) are added. […] Each measurement was done in triplicate.

hCB2 [3] = biological target: T2, hCB2 (Homo sapiens, UniProt P34972); assay: Cerep HTRF cAMP inhibition assay, hCB2 CHO-K1; type: cell-based; set-up: host or cells: HEK293SL cells, transient PEI transfection; conditions: for functional response, concentration-response point (FigS7d): replicate columns;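 as to all read-outs here: compounds incubated 30 min at 37 °C with hCB2 CHO-K1 cells, cAMP detected by HTRF, HBSS as basal and reference agonist as stimulated control, run in triplicate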
Method: as §1

CB1 (rCB1) = CB1 (rCB1) (Rattus norvegicus, UniProt P20272); assay: Radioligand competition binding, [3H]-CP-55,940, rat brain membranes; conditions: rCB1
hCB1 [4] = biological target: T1, hCB1; assay: Tango β-arrestin-2 recruitment, HTLA cells, CB1R; type: cell-based; set-up: expressed in transfected cells; host or cells: HTLA cells (gift of R. Axel), transient transfection; conditions: Log[drug]
hCB2 [5] = biological target: T2, hCB2; assay: TRUPATH BRET2 GoA dissociation, HEK293T; type: cell-based; set-up: expressed in transfected cells; host or cells: HEK293T cells (ATCC: CRL-3216), transient co-transfection; conditions: Log[drug], replicate columns
hCB2 [6] = biological target: T2, hCB2; assay: Tango β-arrestin-2 recruitment, HTLA cells, CB2R; type: cell-based; set-up: expressed in transfected cells; host or cells: HEK293 cells stably expressing human CB2R (Laboratory of Ken Mackie); conditions: hCB2
Method: The Tango β-arrestin-2 recruitment assays were performed as described[83]. In brief, HTLA cells (a gift from the laboratory of R. Axel) were transiently transfected with human CB1R or CB2R Tango DNA construct overnight in DMEM supplemented with 10 % FBS, 100 µg ml−1 streptomycin and 100 U ml−1 penicillin. The transfected cells were then plated into poly-L-lysine-coated 384-well white clear-bottom cell culture plates in DMEM containing 1% dialysed FBS at a density of 10,000–15,000 cells per well. After incubation for 6 h, the plates were added with drug solutions prepared in DMEM containing 1% dialysed FBS for overnight incubation. On the day of assay, medium and drug solutions were removed and 20 µl per well of BrightGlo reagent (Promega) was added. The plates were further incubated for 20 min at room temperature and counted using the Wallac TriLux Microbeta counter (PerkinElmer). The results were analysed using GraphPad Prism 9. Each experiment was performed in triplicate and functional IC50 values were determined from the mean of three independent experiments.

T2 sequence (P34972 whole entry): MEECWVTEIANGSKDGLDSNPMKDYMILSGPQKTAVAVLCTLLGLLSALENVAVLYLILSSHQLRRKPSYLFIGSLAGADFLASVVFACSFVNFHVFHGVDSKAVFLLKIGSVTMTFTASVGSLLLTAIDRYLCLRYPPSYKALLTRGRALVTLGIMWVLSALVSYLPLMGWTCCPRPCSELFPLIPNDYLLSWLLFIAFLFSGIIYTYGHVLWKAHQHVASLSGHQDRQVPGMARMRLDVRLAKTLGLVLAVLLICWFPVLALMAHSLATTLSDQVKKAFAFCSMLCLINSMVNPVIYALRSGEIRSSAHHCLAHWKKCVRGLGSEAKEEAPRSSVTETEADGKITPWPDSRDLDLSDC
T1 sequence (P21554 whole entry): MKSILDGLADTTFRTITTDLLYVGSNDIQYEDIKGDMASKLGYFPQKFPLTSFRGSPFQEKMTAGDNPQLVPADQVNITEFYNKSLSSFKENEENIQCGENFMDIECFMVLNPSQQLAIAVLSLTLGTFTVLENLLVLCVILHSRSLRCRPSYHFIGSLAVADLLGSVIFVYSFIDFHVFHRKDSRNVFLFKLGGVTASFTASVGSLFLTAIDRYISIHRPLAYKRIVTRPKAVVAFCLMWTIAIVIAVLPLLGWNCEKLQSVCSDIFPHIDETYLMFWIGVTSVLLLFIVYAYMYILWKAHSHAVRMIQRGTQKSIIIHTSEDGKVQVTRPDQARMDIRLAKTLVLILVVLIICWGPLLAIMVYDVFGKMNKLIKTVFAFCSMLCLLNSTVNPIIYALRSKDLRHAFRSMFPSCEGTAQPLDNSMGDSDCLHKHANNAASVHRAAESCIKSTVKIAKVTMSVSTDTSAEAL
CB1 (rCB1), sequence (P20272 whole entry): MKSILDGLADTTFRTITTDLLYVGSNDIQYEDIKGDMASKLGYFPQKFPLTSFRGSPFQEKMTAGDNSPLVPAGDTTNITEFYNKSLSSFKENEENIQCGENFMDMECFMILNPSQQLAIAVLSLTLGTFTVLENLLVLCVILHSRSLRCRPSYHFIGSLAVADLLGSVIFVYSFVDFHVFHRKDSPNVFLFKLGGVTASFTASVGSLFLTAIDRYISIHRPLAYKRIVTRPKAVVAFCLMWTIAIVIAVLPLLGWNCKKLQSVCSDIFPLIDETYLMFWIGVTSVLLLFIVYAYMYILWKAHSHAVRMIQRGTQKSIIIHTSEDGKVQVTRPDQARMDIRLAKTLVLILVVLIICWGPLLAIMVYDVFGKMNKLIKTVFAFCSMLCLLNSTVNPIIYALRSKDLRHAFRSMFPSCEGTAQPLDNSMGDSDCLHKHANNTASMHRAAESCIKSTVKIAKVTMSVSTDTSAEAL

Cc1cc(C(=O)N2CC3(CCC3)C2C2CCCO2)nn1-c1cccc(C(F)(F)F)c1 (centres unmarked) [‘3737]
response at log[M] -5 (FigS4f) (hCB1 [1]; log[M] = -5): 2.937 and 3.369
response at log[M] -5.47712 (FigS4f) (hCB1 [1]; log[M] = -5.47712): 2.132 and 1.959
response at log[M] -5.95424 (FigS4f) (hCB1 [1]; log[M] = -5.95424): 0.8089 and 2.3908
response at log[M] -6.43136 (FigS4f) (hCB1 [1]; log[M] = -6.43136): 0.2049 and 1.2691
response at log[M] -6.90849 (FigS4f) (hCB1 [1]; log[M] = -6.90849): -0.5141 and 0.32
response at log[M] -7.38561 (FigS4f) (hCB1 [1]; log[M] = -7.38561): 0.003595 and 0.06112
response at log[M] -7.86273 (FigS4f) (hCB1 [1]; log[M] = -7.86273): 0.32 and 0.4063
response at log[M] -8.33985 (FigS4f) (hCB1 [1]; log[M] = -8.33985): 0.003595 and -0.3703
response at log[M] -8.81697 (FigS4f) (hCB1 [1]; log[M] = -8.81697): 0.2049 and 0.8664
response at log[M] -9.29409 (FigS4f) (hCB1 [1]; log[M] = -9.29409): -0.4278 and -0.5141
Emax (hCB1 [2]; CHO-K1): 99%
Cerep cAMP pEC50 (hCB1 [2]; hCB1): 6.5 [6.0 – 6.8]
EC50 (hCB1 [2]; hCB1): 326 nM
Emax (hCB2 [3]; CHO-K1, hCB2): 45%
functional response, concentration-response point (FigS7d) (hCB2 [3]; Concentration [M] 1e-12): -30 and 18.5 and 4.6
functional response, concentration-response point (FigS7d) (hCB2 [3]; Concentration [M] 1e-11): 15.9 and 16.3 and 22.7
functional response, concentration-response point (FigS7d) (hCB2 [3]; Concentration [M] 1e-10): 3.3 and 8.5 and 15.6
functional response, concentration-response point (FigS7d) (hCB2 [3]; Concentration [M] 1e-9): 40.4 and -11.1 and 23.4
functional response, concentration-response point (FigS7d) (hCB2 [3]; Concentration [M] 1e-8): 41.2 and 37.3 and 34.7
functional response, concentration-response point (FigS7d) (hCB2 [3]; Concentration [M] 1e-7): 47.6 and 60.7 and 69.2
functional response, concentration-response point (FigS7d) (hCB2 [3]; Concentration [M] 1e-6): 52.3 and 67.9 and 43.7
functional response, concentration-response point (FigS7d) (hCB2 [3]; Concentration [M] 1e-5): 46.2 and 40.4 and 47.6
Cerep cAMP pEC50 (hCB2 [3]; hCB2): 8.4 [7.7 – 12.5]
EC50 (hCB2 [3]; hCB2): 4.3 nM
pKi [95% CI] (CB1 (rCB1)): 6.76 [6.5 – 7.03]
response, replicate values of concentration-response curve (FigS7f) (hCB1 [4]; M = -4.52): 16.1787 and -30.1888 and -21.8736 and -37.3037 and -30.7086 and -43.6201 and -17.4903 and -7.002 and -28.2206 and 69.1202 and 86.7632
response, replicate values of concentration-response curve (FigS7f) (hCB1 [4]; M = -5): 10.5 and 4.251 and -11.4922 and -24.0074 and 39.1171 and 4.908 and -25.6442 and 7.194 and 4.112 and 35.3652 and 54.7761
response at Log[drug], M -5 (FigS4e) (hCB1 [4]; M = -5, individual replicates): 1.604 and 1.6378 and -0.1263 and 3.554 and -1.645 and -3.332 and -3.586 and -3.254 and -1.133 and -2.551 and -0.4401 and -2.2823
response, replicate values of concentration-response curve (FigS7f) (hCB1 [4]; M = -5.52): -34.1436 and -19.4525 and -21.2651 and -33.8536 and -16.1649 and -20.5572 and -2.476 and -19.5818 and -27.1597 and -5.334 and 9.411
response at Log[drug], M -5.52 (FigS4e) (hCB1 [4]; M = -5.52, individual replicates): 3.364 and 3.2967 and 3.89 and 5.267 and -2.445 and -3.368 and -3.286 and -3.18 and -0.5298 and -0.4645 and -2.331 and -1.157
response, replicate values of concentration-response curve (FigS7f) (hCB1 [4]; M = -6): 47.6523 and 12.1859 and 4.34 and -19.6283 and -3.001 and -0.2146 and 2.4245 and 18.2472 and 13.6095 and 40.7237 and 38.7735
response at Log[drug], M -6 (FigS4e) (hCB1 [4]; M = -6, individual replicates): 5.688 and 6.311 and 5.608 and 6.012 and -1.436 and -3.213 and -2.355 and -0.1315 and -0.6439 and -0.4319 and -1.117 and -0.5542
response, replicate values of concentration-response curve (FigS7f) (hCB1 [4]; M = -6.52): 26.7755 and 17.066 and 0.4863 and -24.0472 and -30.3238 and -3.24 and 14.0743 and -8.114 and 32.4836 and -15.0304 and -19.0948
response at Log[drug], M -6.52 (FigS4e) (hCB1 [4]; M = -6.52, individual replicates): 5.756 and 5.2335 and 6.796 and 5.427 and -1.042 and -1.74 and -1.178 and 0.9023 and 2.299 and 1.818 and -0.3423 and 0.155
response, replicate values of concentration-response curve (FigS7f) (hCB1 [4]; M = -7): 34.9133 and -3.95 and -16.1188 and -35.3 and 25.4625 and -10.8968 and -21.6834 and 6.2943 and 0.9695 and -12.3146 and 7.534
response at Log[drug], M -7 (FigS4e) (hCB1 [4]; M = -7, individual replicates): 8.884 and 5.924 and 8.758 and 7.292 and -0.04536 and -0.9069 and -0.4556 and -0.1931 and 0.8804 and 2.804 and 1.011 and 0.1957
response, replicate values of concentration-response curve (FigS7f) (hCB1 [4]; M = -7.52): -5.053 and -15.3203 and -3.0249 and -6.279 and -50.5337 and -10.2997 and -15.5807 and -8.983 and -20.2588 and 4.854 and 34.2352
response at Log[drug], M -7.52 (FigS4e) (hCB1 [4]; M = -7.52, individual replicates): 9.415 and 8.198 and 9.343 and 6.627 and -1.362 and -1.444 and -1.617 and 0.25 and 3.66 and 1.117 and 0.375 and 3.994
response at Log[drug], M -8 (FigS4e) (hCB1 [4]; M = -8, individual replicates): 8.737 and 7.057 and 9.276 and 8.661 and -0.8249 and 2.133 and -0.7879 and -0.8084 and 1.019 and 1.329 and 1.361 and 1.467
response at Log[drug], M -8.52 (FigS4e) (hCB1 [4]; M = -8.52, individual replicates): 12.5705 and 14.1572 and 15.386 and 12.0363 and 0.2264 and -0.5023 and 0.2681 and 0.2421 and 3.757 and 10.0248 and 2.888 and 3.985
response, replicate values of concentration-response curve (FigS7f) (hCB1 [4]; M = -9): 8.713
response at Log[drug], M -9 (FigS4e) (hCB1 [4]; M = -9, individual replicates): 14.7823 and 12.9338 and 10.7167 and 15.0494 and -0.7053 and 1.382 and -0.9032 and 2.064 and 3.902 and 4.367 and 2.588 and 2.216
response, replicate values of concentration-response curve (FigS7f) (hCB1 [4]; M = -9.52): -15.5865 and 2.109 and -19.0089 and -14.201 and 8.65 and -30.6423 and 15.2767 and -7.75 and 4.87 and -25.5104 and 1.592
response at Log[drug], M -9.52 (FigS4e) (hCB1 [4]; M = -9.52, individual replicates): 13.1261 and 12.6453 and 12.7896 and 11.1868 and 3.428 and 1.32 and 2.251 and 2.397 and 2.423 and 1.937 and 2.288 and 2.144
response, replicate values of concentration-response curve (FigS7f) (hCB1 [4]; M = -10): -11.9485 and -4.635 and -5.484 and 10.0562 and 9.379 and -4.05 and 21.9756 and 8.952 and 10.1035 and -36.3186 and 8.518
response at Log[drug], M -10 (FigS4e) (hCB1 [4]; M = -10, individual replicates): 11.8653 and 11.8119 and 13.3986 and 14.0664 and 1.366 and 1.523 and 1.018 and -1.502 and 5.629 and 3.467 and 5.091 and 7.656
response at Log[drug], M -10.52 (FigS4e) (hCB1 [4]; M = -10.52, individual replicates): 14.5419 and 16.8873 and 18.068 and 18.8961 and 0.7314 and -0.5544 and 7.931 and 2.309 and 2.226 and 3.798 and 2.154 and 1.523
response at Log[drug], M -11 (FigS4e) (hCB1 [4]; M = -11, individual replicates): 12.4743 and 12.4476 and 8.323 and 8.772 and 2.428 and 1.528 and 2.267 and 2.496 and 5.774 and 4.76 and 2.712 and 3.85
response at Log[drug], M -11.52 (FigS4e) (hCB1 [4]; M = -11.52, individual replicates): 6.5336 and 8.19 and 7.298 and 6.6351 and 3.735 and 0.95 and 2.715 and 0.09109 and 2.743 and 1.926 and 0.799 and -0.6593
response at Log[drug], M -12 (FigS4e) (hCB1 [4]; M = -12, individual replicates): -0.6945 and 1.426 and -1.629 and 0.8975 and 0.8147 and 0.1796 and -0.8095 and -0.1848 and 0.03361 and 0.3025 and -0.05947 and -0.2767
functional response, concentration-response point (FigS7e, normalized) (hCB2 [5]; M = -5): 7.15 and 0.08499 and 7.219 and 7.788 and 7.891 and 6.738 and 8.045 and 7.095 and 12.8638 and 12.2484 and 11.5588 and 11.0027
functional response, concentration-response point (FigS7e, normalized) (hCB2 [5]; M = -5.52): 5.302 and 6.612 and 7.12 and 7.029 and 6.875 and 5.885 and 5.894 and 6.474 and 7.41 and 9.531 and 8.971 and 8.263
functional response, concentration-response point (FigS7e, normalized) (hCB2 [5]; M = -6): 1.28 and 2.3503 and 2.331 and 3.337 and 2.385 and 1.616 and 1.676 and 1.052 and 3.161 and 3.087 and 4.085 and 2.086
functional response, concentration-response point (FigS7e, normalized) (hCB2 [5]; M = -6.52): 0.8173 and 0.5745 and 0.009098 and 0.9653 and 0.9374 and 0.7056 and 0.8258 and 0.7943 and 1.033 and 1.163 and 0.8851 and 1.056
functional response, concentration-response point (FigS7e, normalized) (hCB2 [5]; M = -7): 0.2747 and 0.06981 and 0.08878 and 0.8059 and -0.06126 and 0.2392 and 0.2936 and 0.4538 and 0.7999 and 0.4069 and 0.5552 and 0.6998
functional response, concentration-response point (FigS7e, normalized) (hCB2 [5]; M = -7.52): 0.1912 and 0.08499 and -0.09335 and 0.658 and 0.6598 and 0.9202 and 0.07323 and 0.6226 and 0.2957 and 0.8814 and 0.5663 and 0.5329
functional response, concentration-response point (FigS7e, normalized) (hCB2 [5]; M = -8): 0.324 and -0.4159 and -0.002285 and 0.1419 and 0.1305 and 0.7285 and 0.8 and 0.368 and 0.355 and 0.3476 and 0.5886 and 0.8221
functional response, concentration-response point (FigS7e, normalized) (hCB2 [5]; M = -8.52): -0.4237 and 0.0337 and -0.52 and -0.4863 and 0.2451 and -0.1507 and 1.084 and 0.6009 and 0.6985 and 0.3222 and -0.007056 and 0.3034
functional response, concentration-response point (FigS7e, normalized) (hCB2 [5]; M = -12): 0.3611 and 0.2552 and -0.6451 and 0.02889
Emax (hCB2 [6]; HTLA, read-out: Tango ß-arrestin recruitment Emax): 9%
Tango ß-arrestin recruitment pEC50 (hCB2 [6]): 5.8 [5.7 – 5.9]
EC50 (hCB2 [6]; read-out: Tango ß-arrestin recruitment EC50): 1500 nM
